# Assay results as given in publication PMC12586182 (Frontiers in Oncology, 2025).
# Legend:
# Test in all cases: Kinase panel profiling at 1 µmol/L (mobility shift assay, Carna)
# Format in all cases: biochemical
# Settings in all cases: 1 µmol/L of BTK inhibitor
# [1] = target: T1, EPHB4 (Homo sapiens, UniProt P54760)
# T1 construct: purchased Carna Biosciences
# T1 sequence (P54760 16-987): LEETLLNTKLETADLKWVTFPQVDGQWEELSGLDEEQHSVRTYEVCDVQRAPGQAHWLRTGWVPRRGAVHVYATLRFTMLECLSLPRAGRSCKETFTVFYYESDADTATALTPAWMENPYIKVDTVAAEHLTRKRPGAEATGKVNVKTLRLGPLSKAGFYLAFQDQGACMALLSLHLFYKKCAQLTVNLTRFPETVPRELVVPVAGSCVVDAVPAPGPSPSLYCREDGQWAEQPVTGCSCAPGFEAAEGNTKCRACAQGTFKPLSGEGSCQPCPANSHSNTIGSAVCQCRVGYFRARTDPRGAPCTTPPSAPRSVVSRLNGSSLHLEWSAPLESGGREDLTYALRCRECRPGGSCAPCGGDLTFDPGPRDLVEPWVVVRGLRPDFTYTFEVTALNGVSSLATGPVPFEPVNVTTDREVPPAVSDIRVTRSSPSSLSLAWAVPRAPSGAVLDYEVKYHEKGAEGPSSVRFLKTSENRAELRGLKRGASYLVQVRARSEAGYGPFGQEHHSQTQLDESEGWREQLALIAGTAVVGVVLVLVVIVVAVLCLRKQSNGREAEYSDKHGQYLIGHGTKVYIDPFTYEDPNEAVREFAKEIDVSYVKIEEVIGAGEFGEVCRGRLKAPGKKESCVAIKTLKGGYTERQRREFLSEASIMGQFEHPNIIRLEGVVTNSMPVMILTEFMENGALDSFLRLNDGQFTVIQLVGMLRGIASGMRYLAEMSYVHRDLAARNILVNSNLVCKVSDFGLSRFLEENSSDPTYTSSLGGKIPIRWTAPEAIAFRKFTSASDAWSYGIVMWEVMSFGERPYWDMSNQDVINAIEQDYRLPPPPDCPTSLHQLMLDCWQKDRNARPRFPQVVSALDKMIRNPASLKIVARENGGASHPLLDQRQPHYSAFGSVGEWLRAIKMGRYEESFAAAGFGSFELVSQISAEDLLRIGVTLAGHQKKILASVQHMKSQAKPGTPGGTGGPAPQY
# [2] = target: T2, FGR (Homo sapiens, UniProt P09769)
# T2 construct: purchased Carna Biosciences
# T2 sequence (P09769 whole entry): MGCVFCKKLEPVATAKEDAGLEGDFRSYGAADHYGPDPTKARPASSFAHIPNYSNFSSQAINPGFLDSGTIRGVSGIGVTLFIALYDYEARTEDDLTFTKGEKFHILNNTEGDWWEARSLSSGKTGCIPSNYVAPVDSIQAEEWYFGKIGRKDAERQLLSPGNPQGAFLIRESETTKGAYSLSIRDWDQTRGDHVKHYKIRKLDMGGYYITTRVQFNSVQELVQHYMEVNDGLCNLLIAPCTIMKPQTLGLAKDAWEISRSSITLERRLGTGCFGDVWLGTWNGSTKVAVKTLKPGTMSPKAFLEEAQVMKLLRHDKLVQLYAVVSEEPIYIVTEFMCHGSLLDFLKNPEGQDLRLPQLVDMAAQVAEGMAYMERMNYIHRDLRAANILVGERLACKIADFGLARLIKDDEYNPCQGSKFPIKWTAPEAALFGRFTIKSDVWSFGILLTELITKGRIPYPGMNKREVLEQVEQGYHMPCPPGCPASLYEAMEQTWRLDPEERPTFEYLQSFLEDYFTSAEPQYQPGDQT
# [3] = target: T3, HCK (Homo sapiens, UniProt P08631)
# T3 construct: purchased Carna Biosciences
# T3 sequence (P08631 whole entry): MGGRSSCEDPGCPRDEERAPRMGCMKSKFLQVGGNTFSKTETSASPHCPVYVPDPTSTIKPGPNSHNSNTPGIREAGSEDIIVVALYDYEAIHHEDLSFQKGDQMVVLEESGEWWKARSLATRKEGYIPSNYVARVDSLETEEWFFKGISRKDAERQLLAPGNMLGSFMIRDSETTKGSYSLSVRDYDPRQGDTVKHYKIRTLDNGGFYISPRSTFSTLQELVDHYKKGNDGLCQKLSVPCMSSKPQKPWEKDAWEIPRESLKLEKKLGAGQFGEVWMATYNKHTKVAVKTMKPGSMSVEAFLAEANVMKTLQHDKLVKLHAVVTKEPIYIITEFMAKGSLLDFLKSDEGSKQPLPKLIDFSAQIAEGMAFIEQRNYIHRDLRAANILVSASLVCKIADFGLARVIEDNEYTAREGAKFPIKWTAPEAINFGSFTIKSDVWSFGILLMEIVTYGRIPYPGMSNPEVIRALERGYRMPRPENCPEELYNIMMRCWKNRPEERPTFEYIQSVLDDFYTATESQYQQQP
# [4] = target: T4, CGK2 (Homo sapiens, UniProt Q13237)
# T4 construct: purchased Carna Biosciences
# T4 sequence (Q13237 1-762): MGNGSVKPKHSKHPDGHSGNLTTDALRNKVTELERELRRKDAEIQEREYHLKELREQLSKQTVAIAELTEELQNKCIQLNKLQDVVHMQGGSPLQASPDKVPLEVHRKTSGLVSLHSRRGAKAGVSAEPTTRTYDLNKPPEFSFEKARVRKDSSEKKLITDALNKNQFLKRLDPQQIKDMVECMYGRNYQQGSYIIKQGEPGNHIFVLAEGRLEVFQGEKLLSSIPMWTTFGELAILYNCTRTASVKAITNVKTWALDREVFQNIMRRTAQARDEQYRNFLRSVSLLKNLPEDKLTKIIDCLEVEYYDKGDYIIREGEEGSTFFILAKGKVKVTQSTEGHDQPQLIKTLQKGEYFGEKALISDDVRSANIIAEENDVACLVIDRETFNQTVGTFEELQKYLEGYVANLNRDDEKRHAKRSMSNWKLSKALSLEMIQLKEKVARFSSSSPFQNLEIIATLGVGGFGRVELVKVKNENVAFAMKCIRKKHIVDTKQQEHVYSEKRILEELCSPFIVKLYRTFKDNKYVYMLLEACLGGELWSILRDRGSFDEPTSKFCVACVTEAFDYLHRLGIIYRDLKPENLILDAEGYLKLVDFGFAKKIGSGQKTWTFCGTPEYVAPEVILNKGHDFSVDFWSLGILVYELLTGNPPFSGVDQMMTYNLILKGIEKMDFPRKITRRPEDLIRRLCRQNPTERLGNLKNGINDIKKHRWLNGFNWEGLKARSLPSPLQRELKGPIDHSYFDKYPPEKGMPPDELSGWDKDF
# [5] = target: T5, CLK3 (Homo sapiens, UniProt P49761)
# T5 construct: purchased Carna Biosciences
# T5 sequence (P49761 whole entry): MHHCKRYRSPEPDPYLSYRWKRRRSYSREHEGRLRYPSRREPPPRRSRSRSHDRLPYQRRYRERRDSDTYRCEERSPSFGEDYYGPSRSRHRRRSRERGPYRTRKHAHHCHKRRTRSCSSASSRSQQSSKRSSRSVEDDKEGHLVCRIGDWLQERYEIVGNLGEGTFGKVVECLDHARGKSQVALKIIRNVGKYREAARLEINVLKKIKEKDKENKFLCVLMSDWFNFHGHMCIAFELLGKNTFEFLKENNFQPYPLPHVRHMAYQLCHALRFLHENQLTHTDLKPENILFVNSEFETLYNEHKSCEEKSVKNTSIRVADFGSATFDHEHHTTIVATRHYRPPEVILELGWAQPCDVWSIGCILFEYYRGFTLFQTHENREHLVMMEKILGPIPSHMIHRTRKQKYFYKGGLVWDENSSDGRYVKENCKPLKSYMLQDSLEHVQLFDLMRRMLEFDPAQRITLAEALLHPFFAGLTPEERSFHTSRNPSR
# [6] = target: T6, IRAK1 (Homo sapiens, UniProt P51617)
# T6 construct: purchased Carna Biosciences
# T6 sequence (P51617 whole entry): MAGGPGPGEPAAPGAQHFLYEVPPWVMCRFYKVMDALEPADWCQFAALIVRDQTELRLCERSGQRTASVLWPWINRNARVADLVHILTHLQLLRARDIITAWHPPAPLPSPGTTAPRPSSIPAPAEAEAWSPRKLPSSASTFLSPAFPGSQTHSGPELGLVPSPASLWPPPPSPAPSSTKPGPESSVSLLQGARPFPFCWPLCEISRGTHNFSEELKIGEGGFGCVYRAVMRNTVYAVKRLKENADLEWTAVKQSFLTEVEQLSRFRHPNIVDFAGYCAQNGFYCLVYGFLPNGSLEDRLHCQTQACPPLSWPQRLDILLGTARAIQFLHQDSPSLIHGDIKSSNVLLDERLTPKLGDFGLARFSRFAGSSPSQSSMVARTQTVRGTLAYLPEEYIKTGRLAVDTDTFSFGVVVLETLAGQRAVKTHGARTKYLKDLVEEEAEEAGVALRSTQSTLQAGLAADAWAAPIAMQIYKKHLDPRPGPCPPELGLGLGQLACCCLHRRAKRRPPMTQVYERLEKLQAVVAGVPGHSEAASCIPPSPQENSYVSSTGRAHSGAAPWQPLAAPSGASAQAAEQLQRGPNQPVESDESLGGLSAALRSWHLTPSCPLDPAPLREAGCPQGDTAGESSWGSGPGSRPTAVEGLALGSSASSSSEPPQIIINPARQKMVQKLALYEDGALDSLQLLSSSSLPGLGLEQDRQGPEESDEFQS
# [7] = target: T7, PKACα (Homo sapiens, UniProt P17612)
# T7 construct: purchased Carna Biosciences
# [8] = target: T8, SPHK2 (Homo sapiens, UniProt Q9NRA0)
# T8 construct: purchased Carna Biosciences
# T8 sequence (Q9NRA0 1-654): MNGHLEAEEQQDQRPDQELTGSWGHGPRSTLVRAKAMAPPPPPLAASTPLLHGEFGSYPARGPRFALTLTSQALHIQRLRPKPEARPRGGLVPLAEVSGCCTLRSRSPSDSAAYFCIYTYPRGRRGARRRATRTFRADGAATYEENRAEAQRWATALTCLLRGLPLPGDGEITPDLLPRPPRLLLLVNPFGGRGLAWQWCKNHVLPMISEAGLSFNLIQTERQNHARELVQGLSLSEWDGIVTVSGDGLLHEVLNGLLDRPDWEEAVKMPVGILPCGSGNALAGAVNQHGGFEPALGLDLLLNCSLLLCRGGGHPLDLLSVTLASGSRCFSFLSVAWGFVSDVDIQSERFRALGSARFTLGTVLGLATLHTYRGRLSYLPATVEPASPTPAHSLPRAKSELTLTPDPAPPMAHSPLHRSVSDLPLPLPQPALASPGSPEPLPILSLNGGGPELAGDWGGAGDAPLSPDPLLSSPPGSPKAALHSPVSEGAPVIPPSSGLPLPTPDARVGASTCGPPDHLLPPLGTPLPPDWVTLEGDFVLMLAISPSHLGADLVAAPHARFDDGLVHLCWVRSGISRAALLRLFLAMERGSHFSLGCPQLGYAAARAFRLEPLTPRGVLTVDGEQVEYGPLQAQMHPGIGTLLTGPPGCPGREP
Compound,Percentage inhibition of kinase enzyme activity [1] [%],Percentage inhibition of kinase enzyme activity [2] [%],Percentage inhibition of kinase enzyme activity [3] [%],Percentage inhibition of kinase enzyme activity [4] [%],Percentage inhibition of kinase enzyme activity [5] [%],Percentage inhibition of kinase enzyme activity [6] [%],Percentage inhibition of kinase enzyme activity [7] [%],Percentage inhibition of kinase enzyme activity [8] [%]
CC#CC(=O)N1CCC[C@H]1c1nc(-c2ccc(C(=O)Nc3ccccn3)cc2)c2c(N)nccn12 [acalabrutinib],-1.45,2.91,0.45,1.55,-14.91,-7.06,-5.14,6.90
C=CC(=O)N1CCC[C@@H](n2nc(-c3ccc(Oc4ccccc4)cc3)c3c(N)ncnc32)C1 [ibrutinib],26.52,99.02,99.66,-1.77,,-10.80,-10.78,9.66
O=C(c1ccc(Oc2ccccc2)cc1Cl)c1c[nH]c2ncnc(N[C@@H]3CC[C@@H](CO)OC3)c12 [nemtabrutinib],37.75,90.23,96.80,-1.75,-2.19,-0.39,0.95,1.97
COc1ccc(F)cc1C(=O)NCc1ccc(-c2nn([C@@H](C)C(F)(F)F)c(N)c2C(N)=O)cc1 [pirtobrutinib],4.51,18.17,24.69,-1.75,14.87,-6.46,-26.62,-12.42
C=CC(=O)N1CCC([C@@H]2CCNc3c(C(N)=O)c(-c4ccc(Oc5ccccc5)cc4)nn32)CC1 [zanubrutinib],12.92,2.22,,,,,,
